Like-named read-outs stand apart in the source and are kept apart here. Marks after values point to notes of the source that are not given here.
Assay: Phase 1 relative bioavailability study part 2: plasma pharmacokinetics of fedratinib (3-period crossover)
Assay type: in vivo, human
Conditions: for Cmax / Tmax / AUC(0-t) / AUC(0-inf) / half-life: human, plasma, 400 mg; for half-life: read-out: t½, mean (SD) (converted)
Method: Study part 2 was a 3-period, 6-sequence, open-label, crossover design (Fig. 1B). Treatment 2A (reference) consisted of fedratinib 400 mg (4 × 100-mg capsules) administered orally alongside a nutritional supplement. Treatment 2B (test) consisted of fedratinib 400 mg dispersed in the nutritional supplement (180 mL, Ensure Plus), administered via nasogastric tube, and flushed with 60 mL of sterile water. Treatment 2C (test) consisted of fedratinib 400 mg as a divided dose (2 × 100-mg capsules BID) administered alongside the nutritional supplement. Participants were randomized to receive treatment in one of the following sequences: 2A–2B–2C, 2A–2C–2B, 2B–2A–2C, 2B–2C–2A, 2C–2A–2B, or 2C–2B–2A. […] In the case of an evening (second) dose in the divided dosing plan of treatment 2C, participants were directed to pre-fast at least 2 h before fedratinib dose, and 4 h after fedratinib dose, with water restricted from approximately 2 h before and 1 h after dosing, excluding water given with the treatment.
Approximately 1 h before each fedratinib administration, ondansetron oral tablet (film coated) 8 mg was given orally to reduce the potential for fedratinib-related nausea and vomiting. There was a washout period of at least 12 days between each dose of fedratinib. The duration from screening through the follow-up phone call was approximately 10 weeks. Participants resided at the clinical site from days -1 to 23 (study part 1), or days -1 to 35 (study part 2). If a participant discontinued from the study for any reason, an early termination visit was performed, with only the safety assessments scheduled for the day of discharge taking place. Additionally, each participant who discontinued also received a follow-up phone call 4 (± 2) days after completion of the early termination visit.
For study part 1, and part 2 treatments 2A and 2B, blood samples were collected pre-dose (0 h) and at 0.5, 1, 1.5, 2, 3, 4, 6, 8, 12, 24, 48, 72, 120, 168, 192, and 240 h post-dose. For treatment 2C, blood samples were collected pre-dose (0 h) and at 0.5, 1, 1.5, 2, 3, 4, 6, 8, 12, 12.5, 13, 13.5, 14, 15, 16, 18, 24, 48, 72, 120, 168, 192, and 240 h post-dose of the first dose. The plasma concentration of fedratinib was measured using a validated liquid chromatography-tandem mass spectrometry assay with a lower limit of quantification of 1.00 ng/mL [12, 20].
Plasma PK parameters were calculated using noncompartmental methods by a validated PK analysis program (Phoenix® WinNonlin®, v8.3.4 [Certara USA, Inc., Princeton, NJ, USA]) using actual times. The PK parameters determined for fedratinib Cmax, Tmax, AUC from time 0 to the time of the last quantifiable concentration (AUC0–t), AUC from time 0 to infinity (AUC0–∞), and t½. Additionally for treatment 2C, Cmax and Tmax were estimated after both the first dose (Cmax and Tmax) and the second dose (Cmax2 and Tmax2). AUC0–t and AUC0–∞ were estimated from time 0 (the first dose) through 240 h after the first dose. AUC parameters were calculated using the linear-log trapezoidal method.
The sample size for this study was based on consideration of the precision in the comparison of PK parameters, represented by the 90% confidence interval (CI) of the geometric mean ratios of Cmax and AUC of fedratinib. […] Only participants with valid PK data were included in the summary statistics and statistical analysis.
To compare the PK parameters and estimated relative bioavailability of fedratinib following different administration methods in each study part (treatment 1B to 1A, and treatment 2B and 2C to 2A), a linear mixed-effect model with treatment, period, and sequence as fixed effects and participant nested within sequence as a random effect was fitted to the natural log-transformed PK parameters (Cmax, AUC0–t, and AUC0–∞) for use in estimation of effects and construction of CIs. […]

[1] = Treatment 2B vs 2A (nasogastric tube vs intact capsules), linear mixed-effect model
[2] = Treatment 2C: 400 mg oral divided dose (2 × 100-mg capsules BID) with nutritional supplement, after second dose, n = 30

SMILES: Cc1cnc(Nc2ccc(OCCN3CCCC3)cc2)nc1Nc1cccc(S(=O)(=O)NC(C)(C)C)c1 [fedratinib]
- AUC0–∞ geometric mean ratio (90% CI) [1]: 0.863 (0.816–0.912)
- Cmax geometric mean ratio (90% CI) [1]: 0.898 (0.837–0.963)
- AUC0–∞ geometric mean ratio (90% CI) (Treatment 2C vs 2A (divided dose vs intact capsules QD), linear mixed-effect model): 0.850 (0.804–0.899)
- Cmax2, geometric mean (Geo. %CV) [2]: 487.3^b (44.0) ng/mL
- Tmax2, median (range) [2]: 3.9^b (1.0–6.0) h
- Cmax (oral, Treatment 2C: 400 mg divided dose (2 × 100-mg capsules BID), after first dose, n = 30, read-out: Cmax, geometric mean (statistical analysis)): 641 ng/mL
- Tmax (oral, Treatment 2C: 400 mg divided dose (2 × 100-mg capsules BID), after first dose, n = 30, read-out: Tmax, median (statistical analysis)): 2.26 h
- AUC(0-t) (oral, Treatment 2C: 400 mg divided dose (2 × 100-mg capsules BID), n = 30, read-out: AUC0–t, geometric mean (statistical analysis)): 18900 ng·h/mL
- AUC(0-inf) (oral, Treatment 2C: 400 mg divided dose (2 × 100-mg capsules BID), n = 30, read-out: AUC0–∞, geometric mean (statistical analysis)): 21300 ng·h/mL
- AUC(0-t) (other: nasogastric tube, Treatment 2B: single 400 mg via nasogastric tube, capsule contents dispersed in nutritional supplement, n = 30, read-out: AUC0–t, geometric mean (Geo. %CV)): 19200 ng·h/mL
- AUC(0-inf) (other: nasogastric tube, Treatment 2B: single 400 mg via nasogastric tube, capsule contents dispersed in nutritional supplement, n = 30, read-out: AUC0–∞, geometric mean (Geo. %CV)): 21600 ng·h/mL
- Cmax (other: nasogastric tube, Treatment 2B: single 400 mg via nasogastric tube, capsule contents dispersed in nutritional supplement, n = 30, read-out: Cmax, geometric mean (Geo. %CV)): 1250 ng/mL
- Tmax (other: nasogastric tube, Treatment 2B: single 400 mg via nasogastric tube, capsule contents dispersed in nutritional supplement, n = 30, read-out: Tmax, median (range)): 1.9 h
- half-life (other: nasogastric tube, Treatment 2B: single 400 mg via nasogastric tube, capsule contents dispersed in nutritional supplement, n = 30): 106 h
- AUC(0-t) (other: nasogastric tube, Treatment 2B: single 400 mg via nasogastric tube, dispersed in nutritional supplement, n = 30, read-out: AUC0–t, geometric mean (statistical analysis)): 19200 ng·h/mL
- AUC(0-inf) (other: nasogastric tube, Treatment 2B: single 400 mg via nasogastric tube, dispersed in nutritional supplement, n = 30, read-out: AUC0–∞, geometric mean (statistical analysis)): 21600 ng·h/mL
- Cmax (other: nasogastric tube, Treatment 2B: single 400 mg via nasogastric tube, dispersed in nutritional supplement, n = 30, read-out: Cmax, geometric mean (statistical analysis)): 1250 ng/mL
- Tmax (other: nasogastric tube, Treatment 2B: single 400 mg via nasogastric tube, dispersed in nutritional supplement, n = 30, read-out: Tmax, median (statistical analysis)): 1.87 h
- AUC(0-t) (po, Treatment 2A: single 400 mg oral, 4 × 100-mg intact capsules with nutritional supplement, n = 30, read-out: AUC0–t, geometric mean (Geo. %CV)): 22600 ng·h/mL
- AUC(0-inf) (po, Treatment 2A: single 400 mg oral, 4 × 100-mg intact capsules with nutritional supplement, n = 30, read-out: AUC0–∞, geometric mean (Geo. %CV)): 25000 ng·h/mL
- Cmax (po, Treatment 2A: single 400 mg oral, 4 × 100-mg intact capsules with nutritional supplement, n = 30, read-out: Cmax, geometric mean (Geo. %CV)): 1390 ng/mL
- Tmax (po, Treatment 2A: single 400 mg oral, 4 × 100-mg intact capsules with nutritional supplement, n = 30, read-out: Tmax, median (range)): 2.9 h
- half-life (po, Treatment 2A: single 400 mg oral, 4 × 100-mg intact capsules with nutritional supplement, n = 30): 96.8 h
- AUC(0-t) (po, Treatment 2A: single 400 mg oral, intact capsules with nutritional supplement, n = 30, read-out: AUC0–t, geometric mean (statistical analysis)): 22600 ng·h/mL
- AUC(0-inf) (po, Treatment 2A: single 400 mg oral, intact capsules with nutritional supplement, n = 30, read-out: AUC0–∞, geometric mean (statistical analysis)): 25000 ng·h/mL
